Patent US20120220567A1, “BENZO-FUSED OXAZEPINE COMPOUNDS AS STEAROYL-COENZYME A DELTA-9 DESATURASE INHIBITORS” (priority 2009, published 2012)

The compounds below were run against T1, SCD-1 (Homo sapiens, UniProt O00767) (assay: Stearoyl-CoA desaturase assay (HepG2 cell P2 pellet)). Conditions: Table 1, compounds of formula (Ia); protein from HepG2 cell P2 pellet, 20 μM stearoyl-CoA, 15 min at 25° C.; read-out: Ave IC50.
T1 construct: 50 μg of protein from a HepG2 cell P2 pellet; endogenous in cells; host or cells: HepG2 cells (P2 pellet)
T1 sequence (O00767 1-359): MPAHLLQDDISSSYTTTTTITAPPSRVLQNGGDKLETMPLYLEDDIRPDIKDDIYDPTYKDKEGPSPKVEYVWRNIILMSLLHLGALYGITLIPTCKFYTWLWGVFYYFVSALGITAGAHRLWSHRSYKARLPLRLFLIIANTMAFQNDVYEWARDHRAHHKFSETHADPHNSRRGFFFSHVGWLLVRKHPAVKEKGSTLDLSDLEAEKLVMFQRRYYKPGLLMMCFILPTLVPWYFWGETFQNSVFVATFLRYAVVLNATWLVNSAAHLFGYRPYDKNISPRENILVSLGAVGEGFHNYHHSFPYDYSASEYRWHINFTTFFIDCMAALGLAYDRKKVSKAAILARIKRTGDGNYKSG
Type: biochemical
Protocol: Stearoyl-CoA desaturase assays were performed in according to Talamo and Bloch. […] Assays were run in triplicate in 100-μl volumes of 100 mM TrisHCl, pH 7.3, containing 20 μM stearoyl-CoA, 2 mM β-NADH, and 50 μg of protein from a HepG2 cell P2 pellet. Since SCD-1 is the only isoform of SCD expressed in these cells, the assay is specific for SCD-1 with these cells as the source of enzyme. Reaction mixtures were incubated fifteen minutes at 25° C. and reactions were then stopped with a volume of trichloroacetic acid giving a final concentration of 0.2%. After five minutes, a 90-μl volume was transferred to a Millipore Multiscreen HTS 96-well filtration plate (MSHVN4B50) containing 125 μl of 10% charcoal in each well, to which vacuum had been previously applied. Plates were shaken fifteen minutes and then filtered into a collection plate. Fifty-μI volumes of filtrate were transferred to another plate containing 150 μl of MicroScint 40 for counting on a TopCount scintillation counter.

Row | SMILES | IC50
1 | CC(=O)NCC(=O)N1CCC2(CC1)CCN(Cc1ccc(C#N)cc1)c1ccccc1O2 [Compound 21] | 500 to 10000 nM
2 | CC(=O)NCC(=O)N1CCC2(CC1)CCN(Cc1ccc(C(C)(C)C)cc1)c1cccc(Cl)c1O2 [Compound 15] | 500 to 10000 nM
3 | CCc1ccc(CN2CCC3(CCN(C(=O)CNC(=O)C4CC4)CC3)Oc3ccccc32)cc1 [Compound 5] | 500 to 10000 nM
4 | COc1ccc(CN2CCC3(CCN(C(=O)CNC(C)=O)CC3)Oc3ccccc32)cc1 [Compound 16] | 500 to 10000 nM
5 | CC(=O)NCC(=O)N1CCC2(CC1)CCN(Cc1ccccc1Br)c1ccccc1O2 [Compound 37] | 500 to 10000 nM
6 | CC(=O)NCC(=O)N1CCC2(CC1)CCN(Cc1ccccc1C)c1ccccc1O2 [Compound 41] | 500 to 10000 nM
7 | CC(=O)NCC(=O)N1CCC2(CC1)CCN(Cc1ccccc1Cl)c1ccccc1O2 [Compound 28] | 500 to 10000 nM
8 | CC(=O)NCC(=O)N1CCC2(CC1)CCN(Cc1ccc(C)cc1)c1ccccc1O2 [Compound 35] | 500 to 10000 nM
9 | CC(=O)NCC(=O)N1CCC2(CC1)CCN(Cc1cccc(C(F)(F)F)c1)c1cccc(F)c1O2 [Compound 45] | 500 to 10000 nM
10 | CC(=O)NCC(=O)N1CCC2(CC1)CCN(Cc1ccc(Cl)cc1)c1ccccc1O2 [Compound 17] | > 10000 nM
11 | CC(=O)NCC(=O)N1CCC2(CC1)CCN(Cc1cccc(O)c1)c1ccccc1O2 [Compound 32] | 500 to 10000 nM
12 | CC(=O)NCC(=O)N1CCC2(CC1)CCN(Cc1cccc(Cl)c1)c1ccccc1O2 [Compound 26] | 500 to 10000 nM
13 | CC(=O)NCC(=O)N1CCC2(CC1)CCN(Cc1ccc(Br)cc1)c1ccccc1O2 [Compound 40] | 500 to 10000 nM
14 | CC(=O)NCC(=O)N1CCC2(CC1)CCN(Cc1ccccc1)c1ccccc1O2 [Compound 30] | 500 to 10000 nM
15 | CCc1ccc(CN2CCC3(CCN(C(=O)CNC(=O)Cc4ccccn4)CC3)Oc3ccccc32)cc1 [Compound 10] | > 10000 nM

Same assay, conditions: Table 2, compounds of formula (Ib); protein from HepG2 cell P2 pellet, 20 μM stearoyl-CoA, 15 min at 25° C.; read-out: Ave IC50

Row | SMILES | IC50
16 | N#Cc1cnc(N2CCC3(CC2)CCN(Cc2cccc(C(F)(F)F)c2)c2ccccc2O3)s1 [Compound 127] | 0.5 to 49 nM
17 | CNC(=O)c1cnc(N2CCC3(CC2)CCN(Cc2ccc(C(C)(C)C)cc2)c2ccccc2O3)s1 [Compound 70] | 0.5 to 49 nM
18 | CC(C)(C)OC(=O)CCNC(=O)c1cnc(N2CCC3(CC2)CCN(Cc2cccc(C(F)(F)F)c2)c2ccccc2O3)s1 [Compound 60] | 50 to 499 nM
19 | CCCNC(=O)c1cnc(N2CCC3(CC2)CCN(Cc2ccc(C(C)(C)C)cc2)c2cccc(F)c2O3)s1 [Compound 94] | 50 to 499 nM
20 | Cn1cncc1CNC(=O)c1cnc(N2CCC3(CC2)CCN(Cc2ccc(C(C)(C)C)cc2)c2cccc(F)c2O3)s1 [Compound 121] | > 10000 nM
21 | COC(=O)c1cnc(N2CCC3(CC2)CCN(Cc2cccc(C(F)(F)F)c2)c2ccccc2O3)s1 [Compound 50, methyl 2-(5-(3-(trifluoromethyl)benzyl)-4,5-dihydro-3H-spiro[benzo[b][1,4]oxazepine-2,4′-piperidine]-1′-yl)thiazole-5-carboxylate] | 0.5 to 49 nM
22 | CC(C)(C)OC(=O)CNC(=O)c1cnc(N2CCC3(CC2)CCN(Cc2ccc(C(C)(C)C)cc2)c2cccc(F)c2O3)s1 [Compound 115] | 0.5 to 49 nM
23 | CC(C)(C)c1ccc(CN2CCC3(CCN(c4ncc(C(=O)NCCCN5CCCC5)s4)CC3)Oc3c(F)cccc32)cc1 [Compound 117] | > 10000 nM
24 | COCCCNC(=O)c1cnc(N2CCC3(CC2)CCN(Cc2ccc(C(C)(C)C)cc2)c2cccc(F)c2O3)s1 [Compound 108] | 50 to 499 nM
25 | O=C(NC[C@H](O)CO)c1cnc(N2CCC3(CC2)CCN(Cc2cccc(C(F)(F)F)c2)c2ccccc2O3)s1 [Compound 61] | 0.5 to 49 nM
26 | CC(C)(C)c1ccc(CN2CCC3(CCN(c4ncc(C(=O)NCCc5c[nH]cn5)s4)CC3)Oc3c(F)cccc32)cc1 [Compound 111] | > 10000 nM
27 | CC(C)(C)c1ccc(CN2CCC3(CCN(c4ncc(C(=O)NC[C@H](O)c5ccccc5)s4)CC3)Oc3c(F)cccc32)cc1 [Compound 99] | 500 to 10000 nM
28 | CC(C)(C)c1ccc(CN2CCC3(CCN(c4ncc(C(=O)NC5CC5)s4)CC3)Oc3ccccc32)cc1 [Compound 65] | 50 to 499 nM
29 | COCCNC(=O)c1cnc(N2CCC3(CC2)CCN(Cc2ccc(C(C)(C)C)cc2)c2cccc(F)c2O3)s1 [Compound 103] | 50 to 499 nM
30 | O=C(NCc1ccccc1)c1cnc(N2CCC3(CC2)CCN(Cc2cccc(C(F)(F)F)c2)c2ccccc2O3)s1 [Compound 57] | 500 to 10000 nM
31 | CCNC(=O)c1cnc(N2CCC3(CC2)CCN(Cc2ccc(C(C)(C)C)cc2)c2ccccc2O3)s1 [Compound 68] | 0.5 to 49 nM
32 | O=C(c1cnc(N2CCC3(CC2)CCN(Cc2cccc(C(F)(F)F)c2)c2ccccc2O3)s1)N1CCCC1 [Compound 56] | 500 to 10000 nM
33 | FC(F)(F)c1cccc(CN2CCC3(CCN(c4ncc(Br)s4)CC3)Oc3ccccc32)c1 [Compound 53] | 500 to 10000 nM
34 | CC(C)(C)c1ccc(CN2CCC3(CCN(c4ncc(C(=O)O)s4)CC3)Oc3c(F)cccc32)cc1 [Compound 74] | 0.5 to 49 nM
35 | CC(C)(C)c1ccc(CN2CCC3(CCN(c4ncc(C(=O)NCc5ccco5)s4)CC3)Oc3c(F)cccc32)cc1 [Compound 102] | 500 to 10000 nM
36 | O=C(NCCCO)c1cnc(N2CCC3(CC2)CCN(Cc2cccc(C(F)(F)F)c2)c2ccccc2O3)s1 [Compound 62] | 0.5 to 49 nM
37 | CC(C)(C)c1ccc(CN2CCC3(CCN(c4ncc(C(=O)NCC5CCCO5)s4)CC3)Oc3c(F)cccc32)cc1 (centres unmarked) [Compound 89] | 50 to 499 nM
38 | CNC(=O)c1cnc(N2CCC3(CC2)CCN(Cc2cccc(C(F)(F)F)c2)c2ccccc2O3)s1 [Compound 58, N-methyl-2-(5-(3-(trifluoromethyl)benzyl)-4,5-dihydro-3H-spiro[benzo[b][1,4]oxazepine-2,4′-piperidine]-1′-yl)thiazole-5-carboxamide] | 0.5 to 49 nM
39 | CC(C)(C)c1ccc(CN2CCC3(CCN(c4ncc(C(=O)N5CCCC5)s4)CC3)Oc3ccccc32)cc1 [Compound 72] | 500 to 10000 nM
40 | CC(C)(C)c1ccc(CN2CCC3(CCN(c4ncc(C(=O)NCCN5CCCC5)s4)CC3)Oc3c(F)cccc32)cc1 [Compound 101] | 500 to 10000 nM
41 | CC(C)(C)c1ccc(CN2CCC3(CCN(c4ncc(C(=O)NCCn5ccnc5)s4)CC3)Oc3c(F)cccc32)cc1 [Compound 119] | > 10000 nM
42 | Cc1ccc(CCNC(=O)c2cnc(N3CCC4(CC3)CCN(Cc3ccc(C(C)(C)C)cc3)c3cccc(F)c3O4)s2)s1 [Compound 78] | 500 to 10000 nM
43 | Cc1cnc(CNC(=O)c2cnc(N3CCC4(CC3)CCN(Cc3ccc(C(C)(C)C)cc3)c3cccc(F)c3O4)s2)cn1 [Compound 112] | 500 to 10000 nM
44 | CC(C)(C)c1ccc(CN2CCC3(CCN(c4ncc(C(=O)NCC5CCCO5)s4)CC3)Oc3c(F)cccc32)cc1 (centres unmarked) [Compound 79] | 50 to 499 nM

Same assay, conditions: Table 3, compounds of formula (Ic); protein from HepG2 cell P2 pellet, 20 μM stearoyl-CoA, 15 min at 25° C.; read-out: Ave IC50

Row | SMILES | IC50
45 | CCc1ccc(CN2CCC3(CCN(c4ccc(C(=O)NCCC5CC5)cn4)CC3)Oc3ccccc32)cc1 [Compound 177] | 50 to 499 nM
46 | CC(C)(C)c1ccc(CN2CCC3(CCN(c4ccc(C(=O)O)cn4)CC3)Oc3c(F)cccc32)cc1 [Compound 145] | 50 to 499 nM
47 | CCCNC(=O)c1ccc(N2CCC3(CC2)CCN(Cc2cccc(C(F)(F)F)c2)c2ccccc2O3)nn1 [Compound 157] | 50 to 499 nM
48 | O=C(NCCc1ccncc1)c1ccc(N2CCC3(CC2)CCN(Cc2cccc(C(F)(F)F)c2)c2cccc(F)c2O3)nn1 [Compound 174] | 0.5 to 49 nM
49 | O=C(NCCC1CC1)c1ccc(N2CCC3(CC2)CCN(Cc2ccc(Oc4ccccc4)cc2)c2ccccc2O3)nn1 [Compound 183] | 0.5 to 49 nM
50 | CC(C)(C)c1ccc(CN2CCC3(CCN(c4ccc(C(=O)NCCC5CC5)nn4)CC3)Oc3ccccc32)cc1 [Compound 140] | 0.5 to 49 nM
51 | CC(C)c1ccc(CN2CCC3(CCN(c4ccc(C(=O)NCCC5CC5)nn4)CC3)Oc3ccccc32)cc1 [Compound 181] | 0.5 to 49 nM
52 | O=C(NCCCO)c1ccc(N2CCC3(CC2)CCN(Cc2cccc(C(F)(F)F)c2)c2ccccc2O3)nn1 [Compound 161] | 50 to 499 nM
53 | CC(C)(C)c1ccc(CN2CCC3(CCN(c4ccc(C(=O)NCCc5c[nH]cn5)cn4)CC3)Oc3c(F)cccc32)cc1 [Compound 148] | 500 to 10000 nM
54 | O=C(O)c1ccc(N2CCC3(CC2)CCN(Cc2cccc(C(F)(F)F)c2)c2ccccc2O3)nn1 [Compound 172, 6-(5-(3-(trifluoromethyl)benzyl)-4,5-dihydro-3H-spiro[benzo-[b][1,4]oxazepine-2,4′-piperidine]-1′-yl)pyridazine-3-carboxylic Acid] | 500 to 10000 nM
55 | O=C(NCCC1CC1)c1ccc(N2CCC3(CC2)CCN(Cc2cccc(C(F)(F)F)c2)c2ccccc2O3)cc1 [Compound 171] | 500 to 10000 nM
56 | CC(C)(C)c1ccc(CN2CCC3(CCN(c4ccc(C(=O)NCCc5ccncc5)nn4)CC3)Oc3c(F)cccc32)cc1 [Compound 144] | 0.5 to 49 nM
